Values quoted from earlier work as cited in patent publication US20060165808A1, “Microcapsules for the delayed, controlled release of perindopril” (priority 2002, published 2006).

- solubility in aqueous media: very high degree of solubility
SMILES: CCC[C@H](N[C@@H](C)C(=O)N1[C@H](C(=O)O)C[C@@H]2CCCC[C@@H]21)C(=O)OCC [perindopril]
